Assay results as given in US20040185128A1, “Use of an extract of the root of balloon-flower for preventing and treating a degenerative brain disease or for enhancing memory” (priority 2001, published 2004).
Blank lines part the entries; values can stand above or below the molecule they belong to.

Columns and labels:
[1] = biological target: T1, recombinant human muscarinic acetylcholine receptor subtype 1 (mAChR-M1) (Homo sapiens, UniProt P11229); assay: Inhibition of [3H]N-methyl-scopolamine binding to muscarinic acetylcholine receptor subtype 1; conditions: control compound, read-out: concentration inhibiting the ligand binding to receptor by 50%
T1 construct: purchased BSR BSR-MM1H; host or cells: Chinese Hamster Ovary (CHO) cells
T1 sequence (P11229 1-460): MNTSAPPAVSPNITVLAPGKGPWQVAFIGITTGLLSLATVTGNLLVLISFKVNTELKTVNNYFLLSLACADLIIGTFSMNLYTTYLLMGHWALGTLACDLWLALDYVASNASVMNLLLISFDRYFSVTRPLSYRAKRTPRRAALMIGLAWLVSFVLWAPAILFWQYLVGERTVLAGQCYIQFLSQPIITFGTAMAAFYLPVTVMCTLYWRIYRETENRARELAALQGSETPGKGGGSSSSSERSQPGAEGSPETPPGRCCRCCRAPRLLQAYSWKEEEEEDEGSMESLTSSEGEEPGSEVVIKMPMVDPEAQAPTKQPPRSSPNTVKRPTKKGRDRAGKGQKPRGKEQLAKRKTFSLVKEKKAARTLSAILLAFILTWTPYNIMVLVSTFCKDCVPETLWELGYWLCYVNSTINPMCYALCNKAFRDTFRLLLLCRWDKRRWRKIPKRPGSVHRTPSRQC
Protocol: The ability of each of the compositions obtained in Example 1 in enhancing acetylcholine activity was measured by examining to what extent the binding of a ligand to muscarin acetylcholine receptor subtype 1(M1) is suppressed. That is, an excess amount of a radioactive isotope-labeled ligand was allowed to react with the receptor, unbound ligand was removed by filtering using a glass fiber filter and the amount of the isotope-labeled ligand on the filter was measured to quantify the amount of ligand bound to receptor, and thus, the effects of the compositions of the present invention was determined.
As the receptor, recombinant human muscarinic acetylcholine receptor subtype 1(mAChR-M1, BSR-MM1H, BSR) expressed in Chinese Hamster Ovary (CHO) cells was used. 250 μl of a deep-frozen (−70° C.) receptor fraction was suspended in 10 ml of phosphate buffer saline (PBS) (pH 7.4) and the concentration of the protein was adjusted to 130 μg/ml.
50 μl of 0.5 nM [^3H] N-methyl-scopolamine (24,605 DPM) (NEN, NET-636) and 10 μl of a test composition were added to each well of 96-well microtiter plate (Inotech harvester). […] The filtermat was dried in a microwave oven and the amount of the ligand bound to the receptor was evaluated by determining the radioactivity with the liquid scintillation counter (MicroBeta 1450 Plus; Wallac, Finland). […]

[2] = biological target: T2, NMDA-receptor (glycine site) (Rattus norvegicus, UniProt P35439); assay: Inhibition of [3H]MDL 105,519 binding to the glycine site of NMDA receptor (rat forebrain fraction); conditions: control compound, read-out: concentration inhibiting the ligand binding to receptor by 50%
T2 construct: Preparation of NMDA Receptor Fraction from Rat's Cerebrum; from tissue; host or cells: forebrain membrane fraction of male Sprague-Dawley rat
Excerpt: The fact that the compositions of the present invention suppresses neuron damage was confirmed as follows by examining the activity thereof in suppressing the binding formation of NMDA-receptor (glycine site) bound. NMDA (N-Methyl-D-Aspartate) which acts as an excitatory neurotransmitter induces neuron damage.
That is, an excess amount of a radioactive isotope-labeled ligand was allowed to react with the receptor, unbound ligand was removed by filtering using a glass fiber filter and the amount of the isotope-labeled ligand on the filter was measured to quantify the amount of ligand bound to receptor, and thus, the effects of the compositions of the present invention was determined.
Forebrain taken from a male Spargue-Dawley rat was sliced and a 10-fold volume of cold sucrose solution ([…]) was added thereto. The resulting mixture was homogenized (5 strokes) using a Teflon-glass homogenizer, and then centrifuged at 1000 g (10 min., 4° C.). The supernatant was centrifuged at 20000 g (20 min., 4° C.) to obtain a precipitate, a 20-fold volume of cold distilled water was added thereto and homogenized using Brinkman Polytron Homogenizer. […] The protein content was measured according to Bradford method and the protein concentration of suspension was adjusted to 1 mg/ml, divided into several fractions and kept at −70° C. […]

Male rats = assay: Passive-avoidance test after ethanol administration; type: in vivo, rat; conditions: 250 mg/kg composition (Tacrine 2.5 mg/kg) daily for a week; 3 g/kg 50% ethanol oral before learning; tested 24 hours later, up to 300 seconds
Protocol: Male rats, each weighing about 18 to 20 g, were raised under a condition of temperature 22±1° C. and 12L/12D photoperiod for 7 days while being allowed free access to food and water and used in the Test after 3 days of acclimatization.
The passive avoidance test composed of consecutively learning and testing procedures was conducted over a period of 2 days (interval: 24hours) using PACS-30 shuttle box system (Columbus Instrument Co.).
30 minutes after the 7th (last) administeration, a 3 g/kg dose of 50% ethanol was orally administered to respective rats. After 1 hour, the rats were placed in the bright area of a room which was divided into a dark and bright areas by a guillotin door and allowed to stay there for 30 seconds (the searching time). The guillotin door was opened to let the rats move to the dark side of the room. […] The time the rats took to move from the bright side to the dark side was measured automatically. […]
24 hours after the learning procedure, test procedure was conducted as follows. After 30 seconds of the searching time and opening of the gillontin door, the time the test animal took to move from the bright side to the dark side (latency time) was measured up to the extent 300 seconds. […]

IC50 [1]: 24 nM
SMILES: C[N+]1(C)CCC(OC(=O)C(c2ccccc2)c2ccccc2)CC1 [4-DAMP methiodide]

SMILES: O=C(O)c1cc(=O)c2c(Cl)cc(Cl)cc2[nH]1 [5,7-DCKA, 5,7-Dichlorokynurenic acid]
IC50 [2]: 1000 nM

SMILES: Nc1c2c(nc3ccccc13)CCCC2 [Comparative group, 9-amino-1,2,3,4-tetrahydroacrine]
Latency Time (Male rats): 31 s
